From article PMC12087607 (Drug Design, Development and Therapy, 2025)

Experiments:
rat livers = type: in vivo; conditions: toxicity groups
[1] = system: rats with CCl4-induced liver fibrosis; experiment: Serum liver biomarkers in CCl4-induced liver fibrosis; type: in vivo, rat; conditions: CCl4 6 weeks, then 6-week treatment 20 mg/kg/day
[2] = system: rats with CCl4-induced liver fibrosis; experiment: Liver histology; type: in vivo, rat; conditions: CCl4 6 weeks, then 6-week treatment 20 mg/kg/day
α-SMA = experiment: Immunohistochemical staining of α-SMA in CCl4-induced liver fibrosis; type: in vivo, rat; conditions: CCl4 6 weeks, then 6-week treatment 20 mg/kg/day; vs model group
TGF-β1 = experiment: Hepatic TGF-β1 mRNA expression; type: in vivo, rat; conditions: CCl4 6 weeks, then 6-week treatment 20 mg/kg/day; vs model group
TIMP-1 = experiment: Hepatic TIMP-1 protein levels; type: in vivo, rat; conditions: tissue homogenates; CCl4 6 weeks, then 6-week treatment 20 mg/kg/day
MMP-9 = experiment: Hepatic MMP-9 mRNA expression; type: in vivo, rat; conditions: CCl4 6 weeks, then 6-week treatment 20 mg/kg/day
MDA = experiment: Lipid peroxides; type: in vivo, rat; conditions: liver homogenates; CCl4 6 weeks, then 6-week treatment 20 mg/kg/day
GSH = experiment: Reduced glutathione; type: in vivo, rat; conditions: liver homogenates; CCl4 6 weeks, then 6-week treatment 20 mg/kg/day
TNF-α = experiment: Liver TNF-α content; type: in vivo, rat; conditions: liver homogenates; CCl4 6 weeks, then 6-week treatment 20 mg/kg/day
male Wistar rats [3] = experiment: In vivo toxicity study: daily inspection and body weight; conditions: daily inspection, body weight twice weekly, 6 weeks
male Wistar rats [4] = experiment: In vivo toxicity study: hepatic and renal serum biomarkers; conditions: in vivo toxicity study groups, 6 weeks, mean ± SEM, n = 5

Cc1ccc(-c2cc(C(F)(F)F)nn2-c2ccc(S(N)(=O)=O)cc2)cc1 [celecoxib]
Gross examination of rat livers (rat livers): normal smooth livers with no inflammation or fatty depositions
Serum ALP levels ([1]; normal range 30 to 130 U/L): lied within the normal range
Serum AST and ALT levels ([1]; vs model group): significant reduction in liver enzyme levels
Total serum bilirubin (TBIL) levels ([1]; vs model group): significant decrease in the total serum bilirubin levels
Liver architecture (H&E) [2]: evident fibrolytic effects
Fibrosis score (0–4) ([2]; Masson's trichrome): significant decrease in fibrosis scores
α-SMA % change (in words) (α-SMA): significant decline of the α-SMA %
Hepatic TGF-β1 mRNA expression (TGF-β1): significant reduction in the expression of TGF- β1
Hepatic TIMP-1 protein levels (TIMP-1): caused a decrease in TIMP-1 levels
Hepatic MMP-9 mRNA expression (MMP-9): reversed that upregulation
MDA content (lipid peroxides) (MDA): significant lowering effect on MDA levels
GSH content (GSH): significant rise in GSH levels
Liver TNF-α content (TNF-α): significantly superior effect in lowering TNF-α levels
Signs of stress, toxicity or weight loss (male Wistar rats [3]): did not show any signs of stress, toxicity or weight loss
ALP (male Wistar rats [4]): 123 ± 6.59 U/L
ALT (male Wistar rats [4]): 45.66 ± 0.88 U/L
AST (male Wistar rats [4]): 127.5 ± 14 U/L
Albumin (male Wistar rats [4]): 3.68 ± 0.04 g/dL
Creatinine (male Wistar rats [4]): 0.43 ± 0.06 mg/dL
Total Bilirubin (male Wistar rats [4]): 0.045 ± 0.006 mg/dL
